The results in this text go back to ChEMBL document CHEMBL1136826, “A new synthesis of cytoxazone and its diastereomers provides key initial SAR information” (Bioorg Med Chem Lett, 2003).

One may read the IC50 as the concentration needed to halve the response being measured. Low values mean higher potency, high ones lower potency. The inhibition is the relative decrease from the control value, in per cent. A high value points to a strong effect.

The species entered for one assay is Mus musculus. The assay is described as follows: Inhibitory activity against blockage secretion of IL-10 in pokeweed mitogen (PWN)-stimulated murine splenocytes. Format: functional, organism-based.
A short description of assay [1]: Inhibitory activity against IL-5 on stimulated human peripheral blood mononuclear cells at 30 uM concentration. Format: functional.
Assay [2] is described as follows: Inhibitory activity against IL-10 on stimulated human peripheral blood mononuclear cells at 30 uM concentration. In kind it is functional.
A short description of assay [3]: Inhibitory activity against IL-2 on stimulated human peripheral blood mononuclear cells at 30 uM concentration. In kind it is functional.
The nature of assay [4]: Inhibitory activity against IL-4 on stimulated human peripheral blood mononuclear cells at 30 uM concentration. Format: functional.

Structures are written as SMILES.

Regarding `COc1ccc([C@H]2NC(=O)O[C@H]2CO)cc1`, the IC50 in the assay filed under Mus musculus was 10 µM. Moreover, the inhibition at 30 µM was found to be 66% in assay [1], 94% in assay [2], 19% in assay [3] and 73% in assay [4].
